Experimental data as given in patent US10787450B2 (BRISTOL-MYERS SQUIBB COMPANY, priority 2016, dated 2020).

These molecules were tested against ROCK2 (Homo sapiens (Human), UniProt O75116) (assay: ROCK2 kinase inhibition assay (FITC peptide substrate, LABCHIP 3000 Reader)). Conditions: 5 μM ATP, 1.5 μM peptide substrate.
ROCK2, sequence (O75116 whole entry, species assumed): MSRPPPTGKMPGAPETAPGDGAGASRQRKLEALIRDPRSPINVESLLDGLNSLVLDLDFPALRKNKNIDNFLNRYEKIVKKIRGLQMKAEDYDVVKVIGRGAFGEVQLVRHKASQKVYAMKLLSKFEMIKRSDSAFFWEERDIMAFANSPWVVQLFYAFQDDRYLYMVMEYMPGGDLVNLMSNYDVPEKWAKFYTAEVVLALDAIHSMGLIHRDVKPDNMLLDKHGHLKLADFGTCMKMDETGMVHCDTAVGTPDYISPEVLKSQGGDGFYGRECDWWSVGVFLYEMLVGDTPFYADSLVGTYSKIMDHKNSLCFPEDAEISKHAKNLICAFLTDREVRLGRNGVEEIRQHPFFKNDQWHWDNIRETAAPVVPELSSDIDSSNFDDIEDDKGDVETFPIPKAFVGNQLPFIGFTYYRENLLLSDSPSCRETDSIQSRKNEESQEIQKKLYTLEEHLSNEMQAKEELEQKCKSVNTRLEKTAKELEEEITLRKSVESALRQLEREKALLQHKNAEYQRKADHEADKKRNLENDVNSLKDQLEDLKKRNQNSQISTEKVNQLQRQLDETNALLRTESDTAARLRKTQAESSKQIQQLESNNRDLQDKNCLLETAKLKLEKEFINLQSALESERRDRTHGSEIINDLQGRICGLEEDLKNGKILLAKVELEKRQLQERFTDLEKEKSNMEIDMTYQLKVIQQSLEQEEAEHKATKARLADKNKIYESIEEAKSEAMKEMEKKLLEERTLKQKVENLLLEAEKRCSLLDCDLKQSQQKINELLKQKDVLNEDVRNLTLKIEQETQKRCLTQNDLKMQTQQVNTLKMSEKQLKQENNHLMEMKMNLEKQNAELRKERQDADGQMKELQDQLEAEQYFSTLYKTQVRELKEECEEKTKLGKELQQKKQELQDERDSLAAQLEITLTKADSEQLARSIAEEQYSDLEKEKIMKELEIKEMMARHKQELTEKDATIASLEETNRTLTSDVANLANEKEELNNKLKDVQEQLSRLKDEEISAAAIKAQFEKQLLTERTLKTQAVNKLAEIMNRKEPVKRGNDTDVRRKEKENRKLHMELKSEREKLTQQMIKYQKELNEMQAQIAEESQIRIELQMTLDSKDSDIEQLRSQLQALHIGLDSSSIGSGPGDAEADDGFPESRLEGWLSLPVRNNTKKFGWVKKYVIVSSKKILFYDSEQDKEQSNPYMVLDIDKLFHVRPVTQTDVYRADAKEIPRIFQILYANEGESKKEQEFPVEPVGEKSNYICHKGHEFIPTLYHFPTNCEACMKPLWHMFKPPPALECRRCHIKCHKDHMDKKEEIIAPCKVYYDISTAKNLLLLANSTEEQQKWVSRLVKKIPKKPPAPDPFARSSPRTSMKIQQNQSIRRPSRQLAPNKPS
Format: biochemical
Outline: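 Reaction in 20 mM HEPES pH 7.5, 20 mM MgCl2, 0.015% Brij-35, 4 mM DTT with 5 μM ATP and 1.5 μM FITC-AHA-AKRRRLSSLRA-OH peptide, started with Rho kinase, DMSO <2%. EDTA-stopped; phospho and non-phospho peptide separated by mobility shift. IC50 from dose-response curve fit.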
CC(=O)N1CCC2(CC1)CN(c1ccc(-c3cn[nH]c3)cc1)C(=O)N2Cc1cccc(F)c1C [Example 82, 3-(4-(1H-pyrazol-4-yl)phenyl)-8-acetyl-1-(3-fluoro-2-methylbenzyl)-1,3,8-triazaspiro[4.5]decan-2-one] showed an IC50 of 3 to 30 nM.
O=C1N(c2ccc(-c3cn[nH]c3)cc2)CC2(CCOCC2)N1Cc1ccc(F)c(F)c1 [Example 17, 3-(4-(1H-pyrazol-4-yl)phenyl)-1-(3,4-difluorobenzyl)-8-oxa-1,3-diazaspiro[4.5]decan-2-one] showed an IC50 of 3 to 30 nM.
For COc1cccc(NC2C(=O)N(c3ccc(-c4cn[nH]c4)cc3)CC23CN(C(=O)C(C)(C)O)C3)c1 (stereo not drawn) [Example 246, 6-(4-(1H-pyrazol-4-yl)phenyl)-2-(2-hydroxy-2-methylpro-panoyl)-8-((3-methoxy-phenyl)amino)-2,6-diazaspiro [3.4]octan-7-one], the IC50 was 250 to 3000 nM.
In the case of O=C1N(c2ccc(-c3cn[nH]c3)cc2)CC2(CCOCC2)N1Cc1cc(F)cc(F)c1 [Example 24, 3-(4-(1H-pyrazol-4-yl)phenyl)-1-(3,5-difluorobenzyl)-8-oxa-1,3-diazaspiro[4.5]decan-2-one], the IC50 is reported as 3 to 30 nM.
For COc1cc(F)cc(CN2C(=O)N(c3ccc(-c4cn[nH]c4)cc3)CC23CCN(C2COC2)CC3)c1 [Example 236, 3-(4-(1H-pyrazol-4-yl)phenyl)-1-(3-fluoro-5-methoxy-benzyl)-8-(oxetan-3-yl)-1,3,8-triazaspiro [4.5]decan-2-one], the IC50 was less than 3 nM.
Work on CCOC(=O)N1CCC2(CC1)CN(c1ccc(-c3cn[nH]c3)cn1)C(=O)N2Cc1cccc(OC)c1 [Example 110, ethyl 3-(5-(1H-pyrazol-4-yl)pyridin-2-yl)-1-(3-methoxybenzyl)-2-oxo-1,3,8-triazaspiro[4.5]decane-8-carboxylate] yielded an IC50 of 30 to 250 nM.
COc1cccc(CN2C(=O)N(c3ccc(-c4cn[nH]c4)cn3)CC23CCN(CCC(F)(F)F)CC3)c1 [Example 133, 3-(5-(1H-pyrazol-4-yl)pyridin-2-yl)-1-(3-methoxybenzyl)-8-(3,3,3-trifluoropropyl)-1,3,8-triazaspiro[4.5]decan-2-one] was tested, and the IC50 was 3 to 30 nM.
CCc1nc(N2CC3(CCN(C(=O)CO)CC3)N(Cc3cc(F)cc(OC)c3)C2=O)ccc1-c1cn[nH]c1 [Example 186, 3-(6-ethyl-5-(1H-pyrazol-4-yl)pyridin-2-yl)-1-(3-fluoro-5-methoxybenzyl)-8-(2-hydroxyacetyl)-1,3,8-triazaspiro[4.5]decan-2-one] showed an IC50 of less than 3 nM.
COc1nc(N2CC3(CCN(C(=O)CO)CC3)N(Cc3cccc(F)c3C)C2=O)ccc1-c1cn[nH]c1 [Example 229, 1-(3-fluoro-2-methylbenzyl)-8-(2-hydroxyacetyl)-3-(6-methoxy-5-(1H-pyrazol-4-yl)pyridin-2-yl)-1,3,8-triazaspiro[4.5]decan-2-one] was tested, and the IC50 was less than 3 nM.
COc1cccc(CN2C(=O)N(c3ccc(-c4cn[nH]c4)cn3)CC23CCN(CC(C)O)CC3)c1 (stereo not drawn) [Example 160, 3-(5-(1H-pyrazol-4-yl)pyridin-2-yl)-8-(2-hydroxypropyl)-1-(3-methoxybenzyl)-1,3,8-triazaspiro[4.5]decan-2-one] gave an IC50 of 3 to 30 nM.
Cc1cc(F)ccc1CN1C(=O)N(c2ccc(-c3cn[nH]c3)cc2)CC12CCOCC2 [Example 26, 3-(4-(1H-pyrazol-4-yl)phenyl)-1-(4-fluoro-2-methylbenzyl)-8-oxa-1,3-diazaspiro[4.5]decan-2-one] was tested, and the IC50 was 30 to 250 nM.
With N#Cc1cccc(CN2C(=O)N(c3ccc(-c4cn[nH]c4)cc3)CC23CCOCC3)c1 [Example 14, 3-((3-(4-(1H-pyrazol-4-yl)phenyl)-2-oxo-8-oxa-1,3-diazaspiro[4.5]decan-1-yl)methyl)benzonitrile] the IC50 was 30 to 250 nM.
In the case of COc1cccc(CN2C(=O)N(c3ccc(-c4cn[nH]c4)cc3)CC23CCN(C(=O)N(C)C)CC3)c1 [Example 93, 3-(4-(1H-pyrazol-4-yl)phenyl)-1-(3-methoxybenzyl)-N,N-dimethyl-2-oxo-1,3,8-triazaspiro[4.5]decane-8-carboxamide], the IC50 is reported as less than 3 nM.
COc1nc(N2CC3(CCN(C(=O)CN(C)C)CC3)N(Cc3cccc(F)c3C)C2=O)ccc1-c1cn[nH]c1 [Example 225, 8-(2-(dimethylamino)acetyl)-1-(3-fluoro-2-methylbenzyl)-3-(6-methoxy-5-(1H-pyrazol-4-yl)pyridin-2-yl)-1,3,8-triazaspiro[4.5]decan-2-one] showed an IC50 of less than 3 nM.
In the case of Cc1c(F)cccc1CN1C(=O)N(c2ccc(-c3cn[nH]c3)cc2)CC12CCN(C(=O)C1(C)COC1)CC2 [Example 189, 3-(4-(1H-pyrazol-4-yl)phenyl)-1-(3-fluoro-2-methylbenzyl)-8-(3-methyloxetane-3-carbonyl)-1,3,8-triazaspiro[4.5]decan-2-one], the IC50 is reported as 3 to 30 nM.
COc1ccc(CCC(=O)N2CCC3(CC2)CN(c2ccc(-c4cn[nH]c4)cn2)C(=O)C3Nc2cccc(OC)c2)cc1 (stereo not drawn) [Example 255, -(5-(1H-pyrazol-4-yl)pyridin-2-yl)-4-((3-methoxy-phenyl)amino)-8-(3-(4-methoxy-phenyl)propanoyl)-2,8-diazaspiro [4.5]decan-3-one] showed an IC50 of 250 to 3000 nM.
COc1cc(F)ccc1CN1C(=O)N(c2ccc(-c3cn[nH]c3)cc2)CC12CCOCC2 [Example 28, 3-(4-(1H-pyrazol-4-yl)phenyl)-1-(4-fluoro-2-methoxybenzyl)-8-oxa-1,3-diazaspiro[4.5]decan-2-one] showed an IC50 of 30 to 250 nM.
For COC(=O)N1CCC2(CC1)CN(c1ccc(-c3cn[nH]c3)c(OC)n1)C(=O)N2Cc1cccc(F)c1C [Example 103, methyl 1-(3-fluoro-2-methylbenzyl)-3-(6-methoxy-5-(1H-pyrazol-4-yl)pyridin-2-yl)-2-oxo-1,3,8-triazaspiro[4.5]decane-8-carboxylate], the IC50 was less than 3 nM.
O=C1N(c2ccc(-c3cn[nH]c3)cc2)CC2(CCOCC2)N1Cc1ccccc1F [Example 12, 3-(4-(1H-pyrazol-4-yl)phenyl)-1-(2-fluorobenzyl)-8-oxa-1,3-diazaspiro[4.5]decan-2-one] showed an IC50 of 30 to 250 nM.
O=C1N(c2ccc(-c3cn[nH]c3)cc2)CC2(CCOCC2)N1Cc1c(F)cccc1F [Example 23, 3-(4-(1H-pyrazolo-4-yl)phenyl)-1-(2,6-difluorobenzyl)-8-oxa-1,3-diazaspiro[4.5]decan-2-one] showed an IC50 of 250 to 3000 nM.
O=C1N(c2ccc(-c3cn[nH]c3)cc2)CC2(CCNCC2)N1CC1CCOCC1 [Example 72, 3-(4-(1H-pyrazol-4-yl)phenyl)-1-((tetrahydro-2H-pyran-4-yl)methyl)-1,3,8-triazaspiro[4.5] decan-2-one] was tested, and the IC50 was 250 to 3000 nM.
Work on COc1cccc(CN2C(=O)N(c3ccc(-c4cn[nH]c4)cc3)CC23CCN(CC(C)(C)O)CC3)c1 [Example 138, 3-(4-(1H-pyrazol-4-yl)phenyl)-8-(2-hydroxy-2-methylpropyl)-1-(3-methoxybenzyl)-1,3,8-triazaspiro[4.5]decan-2-one] yielded an IC50 of less than 3 nM.
CN(C(=O)c1cccc(CN2C(=O)N(c3ccc(-c4cn[nH]c4)cc3)CC23CCOCC3)c1)C1CC1 [Example 45, 3-((3-(4-(1H-pyrazol-4-yl)phenyl)-2-oxo-8-oxa-1,3-diazaspiro[4.5]decan-1-yl)methyl)-N-cyclopropyl-N-methylbenzamide] gave an IC50 of less than 3 nM.
COc1cccc(CN2C(=O)N(c3ccc(-c4cn[nH]c4)cc3)CC23CCN(CC(C)C)CC3)c1 [Example 124, 3-(4-(1H-pyrazol-4-yl)phenyl)-8-isobutyl-1-(3-methoxybenzyl)-1,3,8-triazaspiro[4.5]decan-2-one] gave an IC50 of less than 3 nM.
In the case of O=C1N(c2ccc(-c3cn[nH]c3)cc2)CC2(CCOCC2)N1Cc1cccc(F)c1 [Example 13, 3-(4-(1H-pyrazol-4-yl)phenyl)-1-(3-fluorobenzyl)-8-oxa-1,3-diazaspiro[4.5]decan-2-one], the IC50 is reported as 3 to 30 nM.
CCc1nc(N2CC3(CCN(C(=O)C4CC(F)C4)CC3)N(Cc3cccc(OC)c3)C2=O)ccc1-c1cn[nH]c1 (stereo not drawn) [Example 208, 3-(6-ethyl-5-(1H-pyrazol-4-yl)pyridin-2-yl)-8-(3-fluorocyclobutane-carbonyl)-1-(3-methoxybenzyl)-1,3,8-triazaspiro[4.5]decan-2-one] was tested, and the IC50 was 3 to 30 nM.
COc1cccc(CN2C(=O)N(c3ccc(-c4cn[nH]c4)cc3)CC23CCN(C(=O)c2cnn4ccccc24)CC3)c1 [Example 180, 3-(4-(1H-pyrazol-4-yl)phenyl)-1-(3-methoxybenzyl)-8-(pyrazolo[1,5-a]pyridine-3-carbonyl)-1,3,8-triazaspiro[4.5] decan-2-one] gave an IC50 of 3 to 30 nM.
COc1nc(N2CC3(CCN(CC(F)F)CC3)N(Cc3cccc(F)c3C)C2=O)ccc1-c1cn[nH]c1 [Example 137] gave an IC50 of less than 3 nM.
Work on COc1cccc(CN2C(=O)N(c3ccc(-c4cn[nH]c4)c(OC)n3)CC23CCN(C(C)=O)CC3)c1 [Example 85, 8-acetyl-3-(6-methoxy-5-(1H-pyrazol-4-yl)pyridin-2-yl)-1-(3-methoxybenzyl)-1,3,8-triazaspiro[4.5]decan-2-one] yielded an IC50 of less than 3 nM.
Work on CCc1nc(N2CC3(CCN(C(=O)COC)CC3)N(Cc3cccc(OC)c3)C2=O)ccc1-c1cn[nH]c1 [Example 206, 3-(6-ethyl-5-(1H-pyrazol-4-yl)pyridin-2-yl)-8-(2-methoxyacetyl)-1-(3-methoxybenzyl)-1,3,8-triazaspiro[4.5]decan-2-one] yielded an IC50 of less than 3 nM.
COc1cccc(NC2C(=O)N(c3ccc(-c4cn[nH]c4)cn3)CC23CCN(C(=O)CC(C)c2ccccc2)CC3)c1 (stereo not drawn) [Example 254, 2-(5-(1H-pyrazol-4-yl)pyridin-2-yl)-4-((3-methoxy-phenyl)amino)-8-(3-phenyl-butanoyl)-2,8-diazaspiro [4.5]decan-3-one] was tested, and the IC50 was 250 to 3000 nM.
For COc1cccc(CN2C(=O)N(c3ccc(-c4cn[nH]c4)cc3)CC23CCN(C(=O)OCCOCc2ccccc2)CC3)c1 [Example 101, 2-(benzyloxy)ethyl 3-(4-(1H-pyrazol-4-yl)phenyl)-1-(3-methoxybenzyl)-2-oxo-1,3,8-triazaspiro[4.5]decane-8-carboxylate], the IC50 was 3 to 30 nM.
With O=C(c1cccc(CN2C(=O)N(c3ccc(-c4cn[nH]c4)cc3)CC23CCOCC3)c1)N1CCC(CO)CC1 [Example 47, 3-(4-(1H-pyrazol-4-yl)phenyl)-1-(3-(4-(hydroxymethyl)piperidine-1-carbonyl)benzyl)-8-oxa-1,3-diazaspiro[4.5]decan-2-one] the IC50 was 3 to 30 nM.
